Reference: patent publication US6878736B1, “Histamine H3 receptor ligands” (James Black Foundation Limited, priority 1998, dated 2005)
Structures can show the parent of a compound that is named as a salt.

Assays:
Histamine H3 receptor [1] = target: T1, Histamine H3 receptor (Cavia porcellus, UniProt Q9JI35); assay: Histamine H3 radioligand binding assay, guinea pig cortex ([3H]-R-α-methylhistamine); details: guinea pig cortex membranes, competition with 1 nM [3H]-R-α-methylhistamine; read-out: pKi (Guinea pig cortex) (converted)
T1 sequence (Q9JI35 whole entry): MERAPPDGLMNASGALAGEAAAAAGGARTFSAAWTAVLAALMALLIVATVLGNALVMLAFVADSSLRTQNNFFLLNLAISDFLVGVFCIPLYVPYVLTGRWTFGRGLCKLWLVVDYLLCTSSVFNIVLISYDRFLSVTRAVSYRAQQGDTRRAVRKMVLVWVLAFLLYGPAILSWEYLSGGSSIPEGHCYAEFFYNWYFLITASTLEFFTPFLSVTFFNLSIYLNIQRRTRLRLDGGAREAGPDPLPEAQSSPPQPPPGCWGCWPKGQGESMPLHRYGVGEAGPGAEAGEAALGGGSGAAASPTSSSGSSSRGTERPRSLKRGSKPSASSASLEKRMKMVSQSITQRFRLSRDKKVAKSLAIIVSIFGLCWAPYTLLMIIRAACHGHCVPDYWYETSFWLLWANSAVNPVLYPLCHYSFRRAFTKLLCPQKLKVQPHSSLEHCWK
Summary of the method: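 Male Dunkin Hartley guinea pig cortical membranes incubated 165 min at 21±3 °C in 20 mM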

Histamine H3 receptor [2] = target: T1, Histamine H3 receptor; assay: Histamine H3 functional assay, guinea pig ileum (ileal longitudinal muscle, myenteric plexus); design: species or system tissue; details: antagonist affinity from rightward shift of R-(α)-methylhistamine E/[A] curves (Schild); typical variance ±0.15 log units; read-out: pKb (Guinea pig ileum) (converted)
Summary of the method: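 Longitudinal muscle–myenteric plexus strips from male Dunkin-Hartley guinea pigs (250-300 g), Krebs-Henseleit buffer at 37±1° C, field-stimulated at 0.1 Hz, 0.5 msec, supramaximal voltage; isometric recording. Cumulative R-(α)-methylhistamine E/[A] curves as % inhibition of twitch height; antagonist affinity by Schild analysis of rightward shift.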

Compound: N=C(NCCN1CCCC1)NCc1ccc(Cl)cc1 [Example 16, N-(4-Chlorobenzyl)-N′-(2-pyrrolidin-1-yl-ethyl)-guanidine bis-hydrochloride]
- Ki (Histamine H3 receptor [1]): 631 nM
- Kb (Histamine H3 receptor [2]): 3980 nM
